For one test, the system named is BT474-SCTs. Put plainly: Sensitivity of BT474 single cell-line tumoroids (SCTs) on PNS to lapatinib, PrestoBlue cell viability. The test is classed as cell-based. The conditions noted are these: Homo sapiens, BT-474, BT474-SCTs cultured on PNS, lapatinib 72 h. The procedure:
(§1) FIGS. 9A-C are a series of images depicting growth of BT474 derived SCTs (A) and MCTs (B) for 6 days on PNS; tumoroids are stained with calcein AM/EthD-1. Confocal (merged z-stacked) images showing presence of ECs (vWF, green cells), CAFs (SMA positive, red cells) and DAPI (cell nuclei) in BT474-MCTs imaged by confocal microscopy (merged z-stacked images). (C) Differential response of BT474-SCTs and -MCTs to lapatinib. On day 2 after co-culture, BT474 cells were treated with increasing concentrations (μM) of lapatinib for 72 h; cell viability was measured by PrestoBlue assay.
The inventors examined sensitivity of BT474-SCTs and -MCTs to lapatinib. […] These include, IL-6, IL-8, vascular endothelial growth factor (VEGF), monocyte chemotactic protein 1 (MCP-1), platelet derived growth factor BB (PDGF-BB), dickkopf-1 (DKK-1, inhibitor of Wnt signaling pathway), osteoprotegerin (OPG, a negative regulator of bone remodeling) and MMP-3, which have been implicated in tumor metastasis, angiogenesis, cancer stem cell amplification or drug resistance. In addition, five tumoroid biomarkers that are found expressed abundantly in MCTs (vs SCTs) and can be considered as predictors of clinical efficacy for lapatinib, included, a) marker for cell proliferation: Ki67, and b) stromal derived factors: IL-6, MCP-1, VEGF and DKK-1 (FIG. 9D).

For a further test, the system named is BT474-MCTs. Put plainly: Sensitivity of BT474 multi-cell tumoroids (MCTs, co-culture with ECs and CAFs) on PNS to lapatinib, PrestoBlue cell viability. The conditions noted are these: Homo sapiens, BT-474, BT474-MCTs in the presence of ECs and CAFs on PNS, lapatinib 72 h. It is filed as cell-based. The procedure: as §1
The inventors established conditions to co-culture tumor cells with ECs and CAFs to allow formation of robust MCTs. […] The presence of CAFs and ECs in the MCTs was confirmed by immunohistochemistry using anti-smooth muscle actin (SMA) and antivon Willebrand factor (vWF) antibodies for CAFs and ECs, respectively, followed by confocal microscopy (FIG. 9B). On day 5 after co-culture, CAFs were found dispersed throughout the MCT, whereas ECs were found mostly on the edge of the MCT.
The inventors examined sensitivity of BT474-SCTs and -MCTs to lapatinib. […]

`CS(=O)(=O)CCNCc1ccc(-c2ccc3ncnc(Nc4ccc(OCc5cccc(F)c5)c(Cl)c4)c3c2)o1` [lapatinib]: the concentration for half-maximal inhibition (IC50) was below 2.5 µM in the test on BT474-SCTs and above 10 µM in the test with BT474-MCTs.

(Values after US11016062B2, “System and method of measuring cell viability and growth” (University of South Florida, priority 2015, dated 2021).)
